Values of other authors, collected in patent US10729793B2, “Method for imaging arthritis” (GUY'S AND ST THOMAS' HOSPITAL NHS FOUNDATION TRUST, priority 2015, dated 2020).
*1 amine or outer side, *2 acyl side, *3 side chain or, on linkers, in order; H or OH if unused. Where a SMILES comes first, the peptide text is derived from it. Bridges are numbered along the chain shown (N, C = ends). Side-chain parts run from the residue outwards. The star is where a group is joined. X1 = C/C(=N/O)C(C)(C)NCCC(CCNC(C)(C)/C(C)=N\O)CCN*; Glutaryl = O=C(CCCC(=O)[*:2])[*:1]; X2 = NC(=O)COCC(=O)NCCOCCOCCOCCN*

Columns and labels:
αvβ3 integrin = αvβ3 integrin (Homo sapiens, UniProt P05106+P06756); settings: in vitro studies
Sequence of αvβ3 integrin (P06756 31-889 limits assumed): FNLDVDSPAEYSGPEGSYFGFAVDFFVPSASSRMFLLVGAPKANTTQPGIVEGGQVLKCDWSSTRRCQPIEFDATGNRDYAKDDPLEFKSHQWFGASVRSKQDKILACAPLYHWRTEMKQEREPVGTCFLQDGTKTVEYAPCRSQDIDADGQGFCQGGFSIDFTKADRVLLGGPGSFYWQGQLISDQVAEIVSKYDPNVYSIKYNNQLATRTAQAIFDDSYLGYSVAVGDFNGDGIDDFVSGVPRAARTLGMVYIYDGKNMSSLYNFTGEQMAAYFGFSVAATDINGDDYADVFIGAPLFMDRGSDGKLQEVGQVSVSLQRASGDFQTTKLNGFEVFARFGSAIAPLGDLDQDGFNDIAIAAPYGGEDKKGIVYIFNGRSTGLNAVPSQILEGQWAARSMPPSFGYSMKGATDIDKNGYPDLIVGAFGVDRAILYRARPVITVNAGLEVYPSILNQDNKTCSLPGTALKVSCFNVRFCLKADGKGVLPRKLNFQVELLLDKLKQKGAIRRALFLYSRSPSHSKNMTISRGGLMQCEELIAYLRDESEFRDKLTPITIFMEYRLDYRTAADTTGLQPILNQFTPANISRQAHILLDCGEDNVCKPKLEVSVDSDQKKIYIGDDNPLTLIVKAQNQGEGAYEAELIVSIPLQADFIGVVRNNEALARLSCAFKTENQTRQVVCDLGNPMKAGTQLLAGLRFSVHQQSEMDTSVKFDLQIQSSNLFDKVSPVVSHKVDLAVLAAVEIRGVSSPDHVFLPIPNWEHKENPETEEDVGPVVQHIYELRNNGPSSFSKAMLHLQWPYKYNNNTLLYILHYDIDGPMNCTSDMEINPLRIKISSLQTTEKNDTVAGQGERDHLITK
Sequence of αvβ3 integrin (P06756 891-1048 partner limits assumed): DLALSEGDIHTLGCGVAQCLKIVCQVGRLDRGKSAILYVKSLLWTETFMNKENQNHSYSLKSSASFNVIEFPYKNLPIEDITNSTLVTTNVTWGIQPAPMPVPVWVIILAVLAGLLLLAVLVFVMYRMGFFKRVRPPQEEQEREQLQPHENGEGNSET
Sequence of αvβ3 integrin (P05106 27-788): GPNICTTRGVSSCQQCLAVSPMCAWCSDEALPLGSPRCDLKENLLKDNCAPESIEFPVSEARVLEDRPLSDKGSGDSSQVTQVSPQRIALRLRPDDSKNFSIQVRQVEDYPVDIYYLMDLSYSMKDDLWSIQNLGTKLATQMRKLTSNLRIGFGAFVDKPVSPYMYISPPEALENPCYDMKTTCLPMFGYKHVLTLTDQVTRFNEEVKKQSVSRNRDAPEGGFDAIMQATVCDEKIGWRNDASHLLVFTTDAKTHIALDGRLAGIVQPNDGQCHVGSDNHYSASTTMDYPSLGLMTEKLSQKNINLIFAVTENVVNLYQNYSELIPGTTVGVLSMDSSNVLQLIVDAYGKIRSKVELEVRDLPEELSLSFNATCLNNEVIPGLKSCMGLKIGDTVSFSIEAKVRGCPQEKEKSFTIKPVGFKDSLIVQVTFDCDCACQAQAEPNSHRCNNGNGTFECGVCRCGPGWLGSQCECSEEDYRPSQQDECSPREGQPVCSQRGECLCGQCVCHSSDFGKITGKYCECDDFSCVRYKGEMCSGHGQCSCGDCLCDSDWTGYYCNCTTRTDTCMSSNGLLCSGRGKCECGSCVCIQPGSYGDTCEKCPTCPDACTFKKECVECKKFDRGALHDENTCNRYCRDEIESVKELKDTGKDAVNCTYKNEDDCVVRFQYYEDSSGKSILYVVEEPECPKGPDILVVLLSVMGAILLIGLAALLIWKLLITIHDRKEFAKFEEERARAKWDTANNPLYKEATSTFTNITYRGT

[1] = healthy volunteers
[2] = 10 subjects, at 4 months

C/C(=N/O)C(C)(C)NCCC(CCNC(=O)CCCC(=O)NCCCC[C@@H]1NC(=O)CSC[C@@H](C(=O)NCCOCCOCCOCCNC(=O)COCC(N)=O)NC(=O)[C@H](Cc2ccccc2)NC(=O)[C@@H]2CSSC[C@H](NC1=O)C(=O)N[C@@H](CCCNC(=N)N)C(=O)NCC(=O)N[C@@H](CC(=O)O)C(=O)N2)CCNC(C)(C)/C(C)=N\O (stereo partly drawn) [NC100692, maraciclatide] ({CH2CO}-K([Glutaryl-X1])CRGDCFC-X2; disulfide 2-6; thioether N-8)
binding affinity for the αvβ3 integrin (αvβ3 integrin): high binding affinity
mean elimination half-life [1]: approximately one
antibodies to the peptide (immunogenicity) [2]: no detectable antibodies
